How the values were obtained:
[1] = system: PBMCs from HLA-A*02+ healthy donors; assay: IFN-γ ELISPOT of CTLs induced in vitro; assay type: cell-based, human; conditions: PBMCs of six donors stimulated with peptide 10 μg/ml three times, day 21; stimulators peptide-pulsed T2 cells (50 μg/ml); 1 × 10^5 effectors; mean, n = 6
Procedure: CTL induction in vitro was conducted according to the procedures previously described. Briefly, PBMCs from eight HLA-A^∗02^+ healthy donors were isolated using Ficoll-Paque density gradient centrifugation and resuspended in RPMI 1640 medium supplemented with 10% FBS. Then, PBMCs were stimulated three times (once a week) with the indicated peptides (10 μg/ml) or protein MTA1(1–283) (at final concentrations of 0, 1, 10, 30, and 50 μg/ml) for 21 days. Human recombinant cytokine interleukin-2 (IL-2) (50 U/ml) was added on day 3 and 1 day after each stimulation. The cytotoxic assay (lactate dehydrogenase (LDH) assay) and IFN-γ secretion enzyme-linked immunospot (ELISPOT) assay were performed on day 21.
The ELISPOT assay was performed using a commercial kit (Dakewe, China) according to the procedures previously described. Briefly, T2 cells incubated with/without candidate peptide (50 μg/ml) were used as the stimulating cells, effector cells (1 × 10^5) and stimulator cells (peptide-pulsed T2 cells or T2 cells only, 1 × 10^5) were seeded into the 96-well plate precoated with an anti-human (or anti-mouse) IFN-γ antibody. After incubation at 37°C for 18 h, cells were removed, and plates were processed for analysis as instructed. The spot number was determined automatically using a computer-assisted spot analyzer (Dakewe, China).

HLA-A*0201 molecules = HLA-A*0201 molecules (Homo sapiens, UniProt P04439, D140Y/D185E/D98H/E176V/E277Q/G131W/G231S/I119V/I121R/I166T/I218V/L300P/L318F/N151K/N90K/P208A/P217A/Q86G/Q94H/R138H/R169H/T345S); assay: T2 binding assay; conditions: T2 cells 1 × 10^6 cells/ml, peptide 50 μg/ml, 3 μg/ml β2-M, serum-free RPMI 1640, 18 h, 37°C; BB7.2 staining, flow cytometry; FI > 1.5 = high affinity
Procedure: The binding affinity of these peptides to HLA-A^∗0201 was evaluated according to our previous study. Briefly, T2 cells (1 × 10^6 cells/ml) were incubated with each peptide (50 μg/ml) and 3 μg/ml human β2-microglobulin (β2-M, Merck, Germany) in serum-free RPMI 1640 medium for 18 h at 37°C in a humidified atmosphere of 5% CO2. Then cells were washed twice and incubated with the anti-human HLA-A2 PE-Cyanine7 mAb, BB7.2 (eBioscience, USA) for 0.5 h at 4°C. Finally, cells were collected, washed, and analyzed using flow cytometry (FACSCalibur, Becton Dickinson, USA). The fluorescence index (FI) calculation was performed as follows: FI = [(mean fluorescence intensity (MFI) of the given peptide − background) − (MFI of the PBS control group − background)]/[(MFI of the PBS control group − background)]. The MFI value of cells untreated with peptides and antibodies was employed as background. Peptides with an FI factor of more than 1.5 were classed as high-affinity candidates.

| Sequence | IFN-γ ELISPOT mean spot intensities [1] | FI (fluorescence index) (HLA-A*0201 molecules) |
| --- | --- | --- |
| TLLNETESL [Peptide P129] | 411 | 1.28 |
| YLIRRIEEL [Peptide P22] | 566 | 2.08 |

Source: publication PMC6286779, “HLA-A2-Restricted Epitopes Identified from MTA1 Could Elicit Antigen-Specific Cytotoxic T Lymphocyte Response” (Journal of Immunology Research, 2018)
